Data published in US20240109853A1 (Shanghai Yao Yuan Biotechnology Co., Ltd., priority 2020, published 2024).
Where a name gives a salt, the structure may show the parent alone.

target: ALPK1 (Homo sapiens (Human), UniProt Q96QP1); assay: ALPK1 in vitro kinase assay (HTRF of TIFA phosphorylation); type: biochemical; settings: ALPK1 2 nM, TIFA substrate, ADP-Heptose activator, HTRF readout
Sequence (Q96QP1 whole entry): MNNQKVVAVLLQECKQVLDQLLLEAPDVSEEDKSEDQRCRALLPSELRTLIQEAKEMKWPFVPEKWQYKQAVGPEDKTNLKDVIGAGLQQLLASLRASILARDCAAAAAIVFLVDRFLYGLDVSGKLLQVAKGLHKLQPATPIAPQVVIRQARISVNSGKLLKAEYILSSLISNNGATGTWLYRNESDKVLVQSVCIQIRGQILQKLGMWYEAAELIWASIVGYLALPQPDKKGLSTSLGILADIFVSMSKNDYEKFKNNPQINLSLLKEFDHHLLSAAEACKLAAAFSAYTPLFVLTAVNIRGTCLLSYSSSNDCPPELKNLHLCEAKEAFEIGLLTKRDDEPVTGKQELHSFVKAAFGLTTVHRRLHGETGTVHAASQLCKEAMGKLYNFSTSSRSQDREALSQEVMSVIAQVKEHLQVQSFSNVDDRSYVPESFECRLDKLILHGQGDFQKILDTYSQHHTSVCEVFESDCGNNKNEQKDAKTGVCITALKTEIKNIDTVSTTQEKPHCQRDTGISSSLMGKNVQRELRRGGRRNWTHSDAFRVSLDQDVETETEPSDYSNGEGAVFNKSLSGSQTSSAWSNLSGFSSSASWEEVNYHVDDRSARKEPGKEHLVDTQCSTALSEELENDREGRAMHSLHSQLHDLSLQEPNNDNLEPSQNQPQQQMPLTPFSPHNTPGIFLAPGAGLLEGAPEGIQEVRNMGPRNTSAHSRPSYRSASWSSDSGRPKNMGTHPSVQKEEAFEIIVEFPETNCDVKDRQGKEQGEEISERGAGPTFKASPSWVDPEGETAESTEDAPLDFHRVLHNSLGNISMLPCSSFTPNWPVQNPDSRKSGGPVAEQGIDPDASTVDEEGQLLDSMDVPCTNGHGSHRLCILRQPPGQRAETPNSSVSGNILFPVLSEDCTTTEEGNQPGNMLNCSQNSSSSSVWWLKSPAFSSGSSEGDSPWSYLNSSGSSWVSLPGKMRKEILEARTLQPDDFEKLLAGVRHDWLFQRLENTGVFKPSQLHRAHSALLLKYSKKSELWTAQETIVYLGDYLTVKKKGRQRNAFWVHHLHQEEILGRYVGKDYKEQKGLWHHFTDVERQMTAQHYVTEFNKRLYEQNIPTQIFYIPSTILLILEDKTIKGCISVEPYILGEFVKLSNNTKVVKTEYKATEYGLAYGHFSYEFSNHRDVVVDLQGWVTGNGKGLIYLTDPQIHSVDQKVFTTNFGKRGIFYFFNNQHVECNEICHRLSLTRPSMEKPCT

Row | SMILES | IC50 [nM]
1 | Cc1ccc(C(C)(C)c2csc(NC(=O)c3ccc(CN4CCN(C)CC4)cc3)n2)cc1 [Example B046, 4-((4-methylpiperazin-1-yl)methyl)-N-(4-(2-(p-tolyl)propan-2-yl)thiazol-2-yl)benzamide] | 28
2 | COc1ccc(C(C)(C)c2csc(NC(=O)c3ccc(C4CCNCC4)cc3)n2)cc1 [Example B047, N-(4-(2-(4-methoxyphenyl)propan-2-yl)thiazol-2-yl)-4-(piperidin-4-yl)benzamide hydrochloride] | 128
3 | COc1ccc(C(C)(C)c2csc(NC(=O)c3ccc(C4(O)CCNCC4)cc3)n2)cc1 [Example B049, 4-(4-hydroxypiperidin-4-yl)-N-(4-(2-(4-methoxyphenyl)propan-2-yl)thiazol-2-yl)benzamide hydrochloride] | 459
4 | COc1ccc(C(C)(C)c2csc(NC(=O)c3cc(I)cc(I)c3O)n2)cc1 [Example B050, 2-hydroxy-3,5-diiodo-N-(4-(2-(4-methoxyphenyl)propan-2-yl)thiazol-2-yl)benzamide] | 77
5 | CC(C)(c1ccc(Br)cc1)c1csc(NC(=O)c2ccc(CN3CCN(CCO)CC3)nc2)n1 [Example B051, N-(4-(2-(4-bromophenyl)propan-2-yl)thiazol-2-yl)-6-((4-(2-hydroxyethyl)piperazin-1-yl)methyl)nicotinamide] | 61
6 | COc1ccc(C(C)(C)c2csc(NC(=O)c3ccc(CN4CCN(CCO)CC4)nc3)n2)cc1 [Example B052, 6-((4-(2-hydroxyethyl)piperazin-1-yl)methyl)-N-(4-(2-(4-methoxyphenyl)propan-2-yl)thiazol-2-yl)nicotinamide] | 111
7 | COc1ccc(C(C)(C)c2csc(NC(=O)c3ccc(N4CCN(CCO)CC4)nc3)n2)cc1 [Example B053, 6-(4-(2-hydroxyethyl)piperazin-1-yl)-N-(4-(2-(4-methoxyphenyl)propan-2-yl)thiazol-2-yl)nicotinamide] | 104
8 | CC(C)(c1ccc(Br)cc1)c1csc(NC(=O)c2ccc(N3CCN(CCO)CC3)nc2)n1 [Example B054, N-(4-(2-(4-bromophenyl)propan-2-yl)thiazol-2-yl)-6-(4-(2-hydroxyethyl)piperazin-1-yl)nicotinamide] | 269
9 | CN(C)CCNc1ccc(C(=O)Nc2nc(C(C)(C)c3ccc(Br)cc3)cs2)cn1 [Example B055, N-(4-(2-(4-bromophenyl)propan-2-yl)thiazol-2-yl)-6-((2-(dimethylamino)ethyl)amino)nicotinamide] | 125
10 | COc1ccc(C(C)(C)c2csc(NC(=O)c3ccc(NCCN(C)C)nc3)n2)cc1 [Example B056, 6-((2-(dimethylamino)ethyl)amino)-N-(4-(2-(4-methoxyphenyl)propan-2-yl)thiazol-2-yl)nicotinamide] | 120
11 | COCCOc1cc(C(=O)Nc2nc(C(C)(C)c3ccc(OC)cc3)cs2)ccc1N1CCNCC1 [Example B057, 3-(2-methoxyethoxy)-N-(4-(2-(4-methoxyphenyl)propan-2-yl)thiazol-2-yl)-4-(piperazin-1-yl)benzamide hydrochloride] | 103
12 | Cc1ccc(C(C)(C)c2csc(NC(=O)c3ccc(CN4CCN(CCO)CC4)cc3)n2)cc1 [Example B058, 4-((4-(2-hydroxyethyl)piperazin-1-yl)methyl)-N-(4-(2-(p-tolyl)propan-2-yl)thiazol-2-yl)benzamide] | 68
13 | Cc1ccc(C(C)(C)c2csc(NC(=O)c3ccc(CN4CCN(CCO)CC4)nc3)n2)cc1 [Example B059, 6-((4-(2-hydroxyethyl)piperazin-1-yl)methyl)-N-(4-(2-(p-tolyl)propan-2-yl)thiazol-2-yl)nicotinamide] | 159
14 | COc1ccc(C(C)(C)c2csc(NC(=O)c3ccc(NCCO)cc3)n2)cc1 [Example B060, 4-((2-hydroxyethyl)amino)-N-(4-(2-(4-methoxyphenyl)propan-2-yl)thiazol-2-yl)benzamide] | 280
15 | C#CC(C)(c1ccc(Cl)cc1)c1csc(NC(=O)c2ccc(N3CCNCC3)nc2)n1 (stereo not drawn) [Example B061, N-(4-(2-(4-chlorophenyl)but-3-yn-2-yl)thiazol-2-yl)-6-(piperazin-1-yl)nicotinamide] | 167
16 | C#CC(C)(c1ccc(Cl)cc1)c1csc(NC(=O)c2ccc(N3CCNCC3)cc2)n1 (stereo not drawn) [Example B062, N-(4-(2-(4-chlorophenyl)but-3-yn-2-yl)thiazol-2-yl)-4-(piperazin-1-yl)benzamide] | 12
17 | COc1ccc(C(C)(C)c2csc(NC(=O)c3ccc(OCC(C)O)cc3)n2)cc1 (stereo not drawn) [Example B063, 4-(2-hydroxypropoxy)-N-(4-(2-(4-methoxyphenyl)propan-2-yl)thiazol-2-yl)benzamide] | 245
18 | C#CC(C)(c1ccc(Cl)cc1)c1csc(NC(=O)c2c(F)ccc(OC)c2F)n1 (stereo not drawn) [Example B064, N-(4-(2-(4-chlorophenyl)but-3-yn-2-yl)thiazol-2-yl)-2,6-difluoro-3-methoxybenzamide] | 54
19 | C#CC(C)(c1ccc(Cl)cc1)c1csc(NC(=O)c2ccc(N3CCNCC3)cc2F)n1 (stereo not drawn) [Example B065, N-(4-(2-(4-chlorophenyl)but-3-yn-2-yl)thiazol-2-yl)-2-fluoro-4-(piperazin-1-yl)benzamide] | 215
20 | C#CC(C)(c1ccc(Cl)cc1)c1csc(NC(=O)c2ccc(N3CCNCC3)c(OC)c2)n1 (stereo not drawn) [Example B066, N-(4-(2-(4-chlorophenyl)but-3-yn-2-yl)thiazol-2-yl)-3-methoxy-4-(piperazin-1-yl)benzamide] | 184
21 | C#C[C@](C)(c1ccc(Cl)cc1)c1csc(NC(=O)c2ccc(N3CCNC(CO)C3)cc2)n1 (stereo partly drawn) [Example B078, N-(4-(2-(4-chlorophenyl)but-3-yn-2-yl)thiazol-2-y1)-4-(3-(hydroxymethyl)piperazin-1-yl)benzamide] | 169
22 | C#CC(C)(c1ccc(F)cc1)c1csc(NC(=O)c2ccc(N3CCNCC3)c(C(N)=O)c2)n1 (stereo not drawn) [Example B081, N1-(4-(2-(4-fluorophenyl)but-3-yn-2-yl)thiazol-2-yl)-4-(piperazin-1-yl)isophthalamide] | 102
23 | C#CC(C)(c1ccc(F)cc1)c1csc(NC(=O)c2c(F)cc(N3CCNC(CO)C3)cc2F)n1 (stereo not drawn) [Example B082, 2,6-difluoro-N-(4-(2-(4-fluorophenyl)but-3-yn-2-yl)thiazol-2-yl)-4-(3-(hydroxymethyl)piperazin-1-yl)benzamide] | 25
24 | C#CC(C)(c1ccc(Cl)cc1)c1csc(NC(=O)c2c(F)cc(N3CCNC(CO)C3)cc2F)n1 (stereo not drawn) [Example B083, N-(4-(2-(4-chlorophenyl)but-3-yn-2-yl)thiazol-2-yl)-2,6-difluoro-4-(3-(hydroxymethyl)piperazin-1-yl)benzamide] | 78
25 | C#CC(C)(c1ccc(OC)cc1)c1csc(NC(=O)c2c(F)cc(N3CCNC(CO)C3)cc2F)n1 (stereo not drawn) [Example B084, 2,6-difluoro-4-(3-(hydroxymethyl)piperazin-1-yl)-N-(4-(2-(4-methoxyphenyl)but-3-yn-2-yl)thiazol-2-yl)benzamide] | 28
26 | C#C[C@](C)(c1ccc(Cl)cc1)c1csc(NC(=O)c2c(F)cc(N3CCC(N)C3)cc2F)n1 (stereo partly drawn) [Example B086] | 286
27 | C#CC(C)(c1ccc(Cl)cc1)c1csc(NC(=O)c2ccc(N3CCNCC3)cc2F)n1 (stereo not drawn) [Example B094, N-(4-(2-(4-chlorophenyl)but-3-yn-2-yl)thiazol-2-yl)-2-fluoro-4-(piperazin-1-yl)benzamide] | 151
